In patent publication US4464385A, “Treatment of diabetic complications with hydantoins” (Alcon Laboratories, Inc., priority 1982, dated 1984):

Tested on: cataracts in rats
Test: Prevention or retardation of cataracts in galactose-fed rats
Type: in vivo, rat
Conditions: 30% galactose diet, A,C,E 0.0025%, B,D 0.01%
Procedure: The compounds to be tested were:
Test compound/diet mixtures were formulated as follows: […]
Similarly, the 0.01% level was designed to provide a drug concentration of 20 mg per kilogram per day.
All animals were fed the Purina Laboratory Chow and water, ad libitum for a two day acclimatization period. The indicated test compound/diet mixture then was introduced to all animals on Study Day 1 and the animals were maintained on this diet throughout thirty days of the study.
Sufficient amounts of test compound/diet mixture were maintained in the food hoppers to allow the animals to eat ad libitum. All aliquots of test compound/diet mixture added to the food hoopers were weighed and the weights, as well as day of addition, recorded.
Twelve animals were assigned to each treatment with each compound at the indicated percentage by total weight of feed. All eyes were examined with a handheld ophthalmoscope and/or penlight.

Q: What does the source list for `CSc1ccc2c(c1)C1(CCO2)NC(=O)NC1=O` (stereo not drawn) [B]?
A: % of Total Eyes, + (vacuole) (Study Day 2): 0%; % of Total Eyes, - (Normal) (Study Day 2): 100.0%; % of Total Eyes, N (nuclear cataract) (Study Day 2): 0%; % of Total Eyes, S (snowflake) (Study Day 2): 0%; Number of Eyes Observed, + (vacuole) (Study Day 2): 0 eyes; Number of Eyes Observed, - (Normal) (Study Day 2): 24 eyes; Number of Eyes Observed, N (nuclear cataract) (Study Day 2): 0 eyes; Number of Eyes Observed, S (snowflake) (Study Day 2): 0 eyes; Number of Eyes Observed, ± (Study Day 2): 0 eyes; % of Total Eyes, + (vacuole) (Study Day 3): 0%; % of Total Eyes, - (Normal) (Study Day 3): 100.0%; % of Total Eyes, N (nuclear cataract) (Study Day 3): 0%; % of Total Eyes, S (snowflake) (Study Day 3): 0%; Number of Eyes Observed, + (vacuole) (Study Day 3): 0 eyes; Number of Eyes Observed, - (Normal) (Study Day 3): 24 eyes; Number of Eyes Observed, N (nuclear cataract) (Study Day 3): 0 eyes; Number of Eyes Observed, S (snowflake) (Study Day 3): 0 eyes; Number of Eyes Observed, ± (Study Day 3): 0 eyes; % of Total Eyes, + (vacuole) (Study Day 4): 0%; % of Total Eyes, - (Normal) (Study Day 4): 100.0%; % of Total Eyes, N (nuclear cataract) (Study Day 4): 0%; % of Total Eyes, S (snowflake) (Study Day 4): 0%; Number of Eyes Observed, + (vacuole) (Study Day 4): 0 eyes; Number of Eyes Observed, - (Normal) (Study Day 4): 24 eyes; Number of Eyes Observed, N (nuclear cataract) (Study Day 4): 0 eyes; Number of Eyes Observed, S (snowflake) (Study Day 4): 0 eyes; Number of Eyes Observed, ± (Study Day 4): 0 eyes; % of Total Eyes, + (vacuole) (Study Day 5): 0%; % of Total Eyes, - (Normal) (Study Day 5): 91.7%; % of Total Eyes, N (nuclear cataract) (Study Day 5): 0%; % of Total Eyes, S (snowflake) (Study Day 5): 0%; Number of Eyes Observed, + (vacuole) (Study Day 5): 0 eyes; Number of Eyes Observed, - (Normal) (Study Day 5): 22 eyes; Number of Eyes Observed, N (nuclear cataract) (Study Day 5): 0 eyes; Number of Eyes Observed, S (snowflake) (Study Day 5): 0 eyes; Number of Eyes Observed, ± (Study Day 5): 2 eyes; % of Total Eyes, + (vacuole) (Study Day 6): 0%; % of Total Eyes, - (Normal) (Study Day 6): 62.5%; % of Total Eyes, N (nuclear cataract) (Study Day 6): 0%; % of Total Eyes, S (snowflake) (Study Day 6): 0%; Number of Eyes Observed, + (vacuole) (Study Day 6): 0 eyes; Number of Eyes Observed, - (Normal) (Study Day 6): 15 eyes; Number of Eyes Observed, N (nuclear cataract) (Study Day 6): 0 eyes; Number of Eyes Observed, S (snowflake) (Study Day 6): 0 eyes; Number of Eyes Observed, ± (Study Day 6): 9 eyes; % of Total Eyes, + (vacuole) (Study Day 8): 8.3%; % of Total Eyes, - (Normal) (Study Day 8): 41.6%; % of Total Eyes, N (nuclear cataract) (Study Day 8): 0%; % of Total Eyes, S (snowflake) (Study Day 8): 0%; Number of Eyes Observed, + (vacuole) (Study Day 8): 2 eyes; Number of Eyes Observed, - (Normal) (Study Day 8): 10 eyes; Number of Eyes Observed, N (nuclear cataract) (Study Day 8): 0 eyes; Number of Eyes Observed, S (snowflake) (Study Day 8): 0 eyes; Number of Eyes Observed, ± (Study Day 8): 12 eyes; % of Total Eyes, + (vacuole) (Study Day 10): 25.0%; % of Total Eyes, - (Normal) (Study Day 10): 37.5%; % of Total Eyes, N (nuclear cataract) (Study Day 10): 0%; % of Total Eyes, S (snowflake) (Study Day 10): 0%; Number of Eyes Observed, + (vacuole) (Study Day 10): 6 eyes; Number of Eyes Observed, - (Normal) (Study Day 10): 9 eyes; Number of Eyes Observed, N (nuclear cataract) (Study Day 10): 0 eyes; Number of Eyes Observed, S (snowflake) (Study Day 10): 0 eyes; Number of Eyes Observed, ± (Study Day 10): 9 eyes; % of Total Eyes, + (vacuole) (Study Day 12): 41.6%; % of Total Eyes, - (Normal) (Study Day 12): 29.2%; % of Total Eyes, N (nuclear cataract) (Study Day 12): 0%; % of Total Eyes, S (snowflake) (Study Day 12): 0%; Number of Eyes Observed, + (vacuole) (Study Day 12): 10 eyes; Number of Eyes Observed, - (Normal) (Study Day 12): 7 eyes; Number of Eyes Observed, N (nuclear cataract) (Study Day 12): 0 eyes; Number of Eyes Observed, S (snowflake) (Study Day 12): 0 eyes; Number of Eyes Observed, ± (Study Day 12): 7 eyes; % of Total Eyes, + (vacuole) (Study Day 14): 78.0%; % of Total Eyes, - (Normal) (Study Day 14): 12.5%; % of Total Eyes, N (nuclear cataract) (Study Day 14): 0%; % of Total Eyes, S (snowflake) (Study Day 14): 0%; Number of Eyes Observed, + (vacuole) (Study Day 14): 18 eyes; Number of Eyes Observed, - (Normal) (Study Day 14): 3 eyes; Number of Eyes Observed, N (nuclear cataract) (Study Day 14): 0 eyes; Number of Eyes Observed, S (snowflake) (Study Day 14): 0 eyes; Number of Eyes Observed, ± (Study Day 14): 3 eyes; % of Total Eyes, + (vacuole) (Study Day 16): 83.3%; % of Total Eyes, - (Normal) (Study Day 16): 0%; % of Total Eyes, N (nuclear cataract) (Study Day 16): 0%; % of Total Eyes, S (snowflake) (Study Day 16): 0%; Number of Eyes Observed, + (vacuole) (Study Day 16): 20 eyes; Number of Eyes Observed, - (Normal) (Study Day 16): 0 eyes; Number of Eyes Observed, N (nuclear cataract) (Study Day 16): 0 eyes; Number of Eyes Observed, S (snowflake) (Study Day 16): 0 eyes; Number of Eyes Observed, ± (Study Day 16): 4 eyes; % of Total Eyes, + (vacuole) (Study Day 18): 95.8%; % of Total Eyes, - (Normal) (Study Day 18): 0%; % of Total Eyes, N (nuclear cataract) (Study Day 18): 0%; % of Total Eyes, S (snowflake) (Study Day 18): 0%; Number of Eyes Observed, + (vacuole) (Study Day 18): 23 eyes; Number of Eyes Observed, - (Normal) (Study Day 18): 0 eyes; Number of Eyes Observed, N (nuclear cataract) (Study Day 18): 0 eyes; Number of Eyes Observed, S (snowflake) (Study Day 18): 0 eyes; Number of Eyes Observed, ± (Study Day 18): 1 eyes; % of Total Eyes, + (vacuole) (Study Day 20): 91.7%; % of Total Eyes, - (Normal) (Study Day 20): 0%; % of Total Eyes, N (nuclear cataract) (Study Day 20): 0%; % of Total Eyes, S (snowflake) (Study Day 20): 4.2%; Number of Eyes Observed, + (vacuole) (Study Day 20): 22 eyes; Number of Eyes Observed, - (Normal) (Study Day 20): 0 eyes; Number of Eyes Observed, N (nuclear cataract) (Study Day 20): 0 eyes; Number of Eyes Observed, S (snowflake) (Study Day 20): 1 eyes; Number of Eyes Observed, ± (Study Day 20): 1 eyes; % of Total Eyes, + (vacuole) (Study Day 22): 70.8%; % of Total Eyes, - (Normal) (Study Day 22): 0%; % of Total Eyes, N (nuclear cataract) (Study Day 22): 0%; % of Total Eyes, S (snowflake) (Study Day 22): 29.2%; Number of Eyes Observed, + (vacuole) (Study Day 22): 17 eyes; Number of Eyes Observed, - (Normal) (Study Day 22): 0 eyes; Number of Eyes Observed, N (nuclear cataract) (Study Day 22): 0 eyes; Number of Eyes Observed, S (snowflake) (Study Day 22): 7 eyes; Number of Eyes Observed, ± (Study Day 22): 0 eyes; % of Total Eyes, + (vacuole) (Study Day 24): 45.8%; % of Total Eyes, - (Normal) (Study Day 24): 0%; % of Total Eyes, N (nuclear cataract) (Study Day 24): 0%; % of Total Eyes, S (snowflake) (Study Day 24): 54.2%; Number of Eyes Observed, + (vacuole) (Study Day 24): 11 eyes; Number of Eyes Observed, - (Normal) (Study Day 24): 0 eyes; Number of Eyes Observed, N (nuclear cataract) (Study Day 24): 0 eyes; Number of Eyes Observed, S (snowflake) (Study Day 24): 13 eyes; Number of Eyes Observed, ± (Study Day 24): 0 eyes; % of Total Eyes, + (vacuole) (Study Day 26): 20.8%; % of Total Eyes, - (Normal) (Study Day 26): 0%; % of Total Eyes, N (nuclear cataract) (Study Day 26): 0%; % of Total Eyes, S (snowflake) (Study Day 26): 79.2%; Number of Eyes Observed, + (vacuole) (Study Day 26): 5 eyes; Number of Eyes Observed, - (Normal) (Study Day 26): 0 eyes; Number of Eyes Observed, N (nuclear cataract) (Study Day 26): 0 eyes; Number of Eyes Observed, S (snowflake) (Study Day 26): 19 eyes; Number of Eyes Observed, ± (Study Day 26): 0 eyes; % of Total Eyes, + (vacuole) (Study Day 28): 8.3%; % of Total Eyes, - (Normal) (Study Day 28): 0%; % of Total Eyes, N (nuclear cataract) (Study Day 28): 0%; % of Total Eyes, S (snowflake) (Study Day 28): 91.7%; Number of Eyes Observed, + (vacuole) (Study Day 28): 2 eyes; Number of Eyes Observed, - (Normal) (Study Day 28): 0 eyes; Number of Eyes Observed, N (nuclear cataract) (Study Day 28): 0 eyes; Number of Eyes Observed, S (snowflake) (Study Day 28): 22 eyes; Number of Eyes Observed, ± (Study Day 28): 0 eyes; % of Total Eyes, + (vacuole) (Study Day 30): 4.2%; % of Total Eyes, - (Normal) (Study Day 30): 0%; % of Total Eyes, N (nuclear cataract) (Study Day 30): 0%; % of Total Eyes, S (snowflake) (Study Day 30): 95.8%; Number of Eyes Observed, + (vacuole) (Study Day 30): 1 eyes; Number of Eyes Observed, - (Normal) (Study Day 30): 0 eyes; Number of Eyes Observed, N (nuclear cataract) (Study Day 30): 0 eyes; Number of Eyes Observed, S (snowflake) (Study Day 30): 23 eyes; Number of Eyes Observed, ± (Study Day 30): 0 eyes
